Measurements published in PubChem BioAssay AID1963985 (Molecular Pharmacology Branch, DTP, NCI, 2024).
pIC50: −log10 of the molar value.

System: 252836-082-R-J2-PDC tumor spheroids, viability
Assay: Anticancer human tumor 252836-082-R-J2-PDC patient-derived head and neck squamous cell carcinoma cell line growth inhibition [PI3K]
Conditions: spheroids with HUVEC and MSC; for pIC50: curve of first compound; for viability, T/C: stronger effect = lower value
In short: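 Tumor cells grown as multi-cell spheroids with HUVEC endothelial cells and MSC fibroblast-like stroma were treated with targeted agents combined with inavolisib, alpelisib, duvelisib or copanlisib. Doses fell in half-log steps from near clinical Cmax, else from 10 microM. Viability was measured.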

[1] = second compound 0.00316 µM, first compound 0.0316 µM
[2] = second compound 0.00316 µM, first compound 0.1 µM
[3] = second compound 0.00316 µM, first compound 0.316 µM
[4] = second compound 0.00316 µM, first compound 1 µM
[5] = second compound 0.00316 µM, first compound 3.16 µM
[6] = second compound 0.00316 µM, first compound 10 µM
[7] = second compound 0.01 µM, first compound 0.0316 µM
[8] = second compound 0.01 µM, first compound 0.1 µM
[9] = second compound 0.01 µM, first compound 0.316 µM
[10] = second compound 0.01 µM, first compound 1 µM
[11] = second compound 0.01 µM, first compound 3.16 µM
[12] = second compound 0.01 µM, first compound 10 µM
[13] = second compound 0.0316 µM, first compound 0.0316 µM
[14] = second compound 0.0316 µM, first compound 0.1 µM
[15] = second compound 0.0316 µM, first compound 0.316 µM
[16] = second compound 0.0316 µM, first compound 1 µM
[17] = second compound 0.0316 µM, first compound 3.16 µM
[18] = second compound 0.0316 µM, first compound 10 µM
[19] = second compound 0.1 µM, first compound 0.0316 µM
[20] = second compound 0.1 µM, first compound 0.1 µM
[21] = second compound 0.1 µM, first compound 0.316 µM
[22] = second compound 0.1 µM, first compound 1 µM
[23] = second compound 0.1 µM, first compound 3.16 µM
[24] = second compound 0.1 µM, first compound 10 µM
[25] = second compound 0.316 µM, first compound 0.0316 µM
[26] = second compound 0.316 µM, first compound 0.1 µM
[27] = second compound 0.316 µM, first compound 0.316 µM
[28] = second compound 0.316 µM, first compound 1 µM
[29] = second compound 0.316 µM, first compound 3.16 µM
[30] = second compound 0.316 µM, first compound 10 µM
[31] = second compound 1 µM, first compound 0.0316 µM
[32] = second compound 1 µM, first compound 0.1 µM
[33] = second compound 1 µM, first compound 0.316 µM
[34] = second compound 1 µM, first compound 1 µM
[35] = second compound 1 µM, first compound 3.16 µM
[36] = second compound 1 µM, first compound 10 µM
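Also: spheroids exposed to agents for seven days before readout.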
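For viability, T/C in this document: percent of vehicle DMSO control viability so 100% = untreated growth.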

CC1(C)CCC(CN2CCN(c3ccc(C(=O)NS(=O)(=O)c4ccc(NCC5CCOCC5)c([N+](=O)[O-])c4)c(Oc4cnc5[nH]ccc5c4)c3)CC2)=C(c2ccc(Cl)cc2)C1 + COc1c(OCCCN2CCOCC2)ccc2c3n(c(=NC(=O)c4cnc(N)nc4)nc12)CCN3
pIC50 (second compound 0.00316 µM): 5.24
pIC50 (second compound 0.01 µM): 5.28
pIC50 (second compound 0.0316 µM): 5.49
pIC50 (second compound 0.1 µM): > 7.50
pIC50 (second compound 0.316 µM): > 7.50
pIC50 (second compound 1 µM): > 7.50
viability, T/C [1]: 89.7%
viability, T/C [2]: 89.2%
viability, T/C [3]: 89.3%
viability, T/C [4]: 83.9%
viability, T/C [5]: 80.7%
viability, T/C [6]: 23%
viability, T/C [7]: 75.8%
viability, T/C [8]: 67.3%
viability, T/C [9]: 76.2%
viability, T/C [10]: 84.8%
viability, T/C [11]: 80.4%
viability, T/C [12]: 15.9%
viability, T/C [13]: 59.2%
viability, T/C [14]: 56%
viability, T/C [15]: 53.3%
viability, T/C [16]: 58.9%
viability, T/C [17]: 50.2%
viability, T/C [18]: 13.9%
viability, T/C [19]: 35.9%
viability, T/C [20]: 35.8%
viability, T/C [21]: 37%
viability, T/C [22]: 35.3%
viability, T/C [23]: 45.2%
viability, T/C [24]: 14.2%
viability, T/C [25]: 17.2%
viability, T/C [26]: 16.5%
viability, T/C [27]: 15.8%
viability, T/C [28]: 16.9%
viability, T/C [29]: 17.1%
viability, T/C [30]: 5.65%
viability, T/C [31]: 5.01%
viability, T/C [32]: 3.96%
viability, T/C [33]: 4.59%
viability, T/C [34]: 3.64%
viability, T/C [35]: 4.04%
viability, T/C [36]: 1.11%

C[C@@H](NC(=O)c1ncnc(N)c1Cl)c1ncc(C(=O)Nc2cc(C(F)(F)F)c(Cl)cn2)s1 + COc1c(OCCCN2CCOCC2)ccc2c3n(c(=NC(=O)c4cnc(N)nc4)nc12)CCN3
pIC50 (second compound 0.00316 µM): < 5.00
pIC50 (second compound 0.01 µM): < 5.00
pIC50 (second compound 0.0316 µM): < 5.00
pIC50 (second compound 0.1 µM): > 7.50
pIC50 (second compound 0.316 µM): > 7.50
pIC50 (second compound 1 µM): > 7.50
viability, T/C [1]: 89.6%
viability, T/C [2]: 77.8%
viability, T/C [3]: 104%
viability, T/C [4]: 84.7%
viability, T/C [5]: 94.5%
viability, T/C [6]: 85.8%
viability, T/C [7]: 81%
viability, T/C [8]: 71.4%
viability, T/C [9]: 79.5%
viability, T/C [10]: 77.5%
viability, T/C [11]: 72.4%
viability, T/C [12]: 84.2%
viability, T/C [13]: 69.6%
viability, T/C [14]: 66.1%
viability, T/C [15]: 80.5%
viability, T/C [16]: 56%
viability, T/C [17]: 62.1%
viability, T/C [18]: 59.6%
viability, T/C [19]: 37.6%
viability, T/C [20]: 39.1%
viability, T/C [21]: 39.9%
viability, T/C [22]: 37%
viability, T/C [23]: 43.3%
viability, T/C [24]: 32.1%
viability, T/C [25]: 18.4%
viability, T/C [26]: 16.6%
viability, T/C [27]: 21%
viability, T/C [28]: 17.7%
viability, T/C [29]: 17.2%
viability, T/C [30]: 9.8%
viability, T/C [31]: 5.39%
viability, T/C [32]: 5.07%
viability, T/C [33]: 5.62%
viability, T/C [34]: 6.77%
viability, T/C [35]: 5.91%
viability, T/C [36]: 1.42%
